# Literature values in patent publication US20050234025A1, “Compositions comprising one or more policosanols and/or policosanoic acids combined with sterol and/or steroid based ascorbic acid derivatives, and uses thereof” (FORBES MEDI-TECH INC., priority 2004, published 2005).
# Test system: mice
# Settings: Ben-David et al.
structure (smiles),measurement,value
"C[C@]12CC[C@H](O)CC1=CC[C@@H]1[C@@H]2CC[C@]2(C)C(=O)CC[C@@H]12 [DHEA, dehydroepiandrostrone]",effect on cholesterol (anti-hypercholesterolemic effect),anti-hypercholesterolemic effect
